Key:
[1] = system: HCV replicon in Huh7 cells; experiment: HCV replicon cell-based assay (FRET); parameters: species or system HCV strain 1B; conditions: Hepatitis C virus, Huh-7; replicon, activity range; read-out: EC50 a, b, c (Activity Table)
Description: HCV Replicon Cell-based Assay
An HCV replicon whole cell system was established as described by Lohmann V, Korner F, Koch J, Herian U, Theilmann L, Bartenschlager R., Science 285(5424): 110-3 (1999). This system enabled us to evaluate the effects of our HCV Protease compounds on HICV RNA replication. Briefly, using the HCV strain 1B sequence described in the Lohmann paper (Assession number: AJ238799), an HCV cDNA was generated encoding the 5′ internal ribosome entry site (IRES), the neomycin resistance gene, the EMCV (encephalomyocarditis virus)-IRES and the HCV nonstructural proteins, NS3-NS5B, and 3′ non-translated region (NTR). In vitro transcripts of the cDNA were transfected into the human hepatoma cell line, Huh7. […] Resulting cell lines were characterized for positive and negative strand RNA production and protein production over time.
Huh7 cells, constitutively expressing the HCV replicon, were grown in Dulbecco's Modified Eagle Media (DMEM) containing 10% Fetal calf serum (FCS) and 1 mg/ml G418 (Gibco-BRL). Cells were seeded the night before (1.5×10^4 cells/well) in 96-well tissue-culture sterile plates. Compound and no compound controls were prepared in DMEM containing 4% FCS, 1:100 Penicillin/Streptomysin, 1:100 L-glutamine and 5% DMSO in the dilution plate (0.5% DMSO final concentration in the assay). Compound/DMSO mixes were added to the cells and incubated for 4 days at 37° C. After 4 days, plates were rinsed thoroughly with Phosphate-Buffered Saline (PBS) (3 times 150 μl). The cells were lysed with 25 μl of a lysis assay reagent containing the FRET peptide (RET S1, as described for the in vitro enzyme assay). The lysis assay reagent was made from 5× cell Luciferase cell culture lysis reagent(Promega #E153A) diluted to 1× with distilled water, NaCl added to 150 mM final, the FRET peptide diluted to 10 μM final from a 2 mM stock in 100% DMSO. The plate was then placed into the Cytofluor 4000 instrument which had been set to 340 nm excitation/490 emission, automatic mode for 21 cycles and the plate read in a kinetic mode. EC50 determinations were carried out as described for the IC50 determinations.

[2] = target: T1, HCV NS3/4A protease complex (BMS strain) (Hepatitis C virus genotype 1a, UniProt P27958, C1454S); experiment: Recombinant HCV NS3/4A protease complex FRET peptide assay, BMS strain; assay type: biochemical, HCV genotype 1a; conditions: NS3/4A BMS Strain, activity range; read-out: IC50 a, b, c (Activity Table)
T1 construct: HCV NS3/4A protease complex (amino acids 1027 to 1711); inferred from pET21b vector and Ni-NTA purification; made in house; host or cells: Escherichia coli BL21 (DE3), pET21b
Description: Recombinant HCV NS3/4A Protease Complex FRET Peptide Assay
The purpose of this in vitro assay was to measure the inhibition of HCV NS3 protease complexes, derived from the BMS, H77C or J4l6S strains, as described below, by compounds of the present invention. This assay provides an indication of how effective compounds of the present invention would be in inhibiting HCV proteolytic activity.
Serum from an HCV-infected patient was obtained from Dr. T. Wright, San Francisco Hospital. An engineered full-length cDNA template of the HCV genome (BMS strain) was constructed from DNA fragments obtained by reverse transcription-PCR (RT-PCR) of serum RNA and using primers selected on the basis of homology between other genotype la strains. From the determination of the entire genome sequence, a genotype la was assigned to the HCV isolate according to the classification of Simmonds et al. (See P Simmonds, K A Rose, S Graham, S W Chan, F McOmish, B C Dow, E A Follett, P L Yap and H Marsden, J. Clin. Microbiol., 31(6), 1493-1503 (1993)). […] The infectious clones, H77C (1a genotype) and J4 L6S (1b genotype) were obtained from R. Purcell (NIH) and the sequences are published in Genbank (AAB67036, see Yanagi, M., Purcell, R. H., Emerson, S. U. and Bukh, J. Proc. Natl. Acad. Sci. U.S.A. 94(16),8738-8743 (1997); AF054247, see Yanagi, M., St Claire, M., Shapiro, M., Emerson, S. U., Purcell, R. H. and Bukh, J, Virology 244 (1), 161-172. (1998)).
The BMS, H77C and J4 L6S strains were used for production of recombinant NS3/4A protease complexes. DNA encoding the recombinant HCV NS3/4A protease complex (amino acids 1027 to 1711) for these strains were manipulated as described by P. Gallinari et al. (see Gallinari P, Paolini C, Brennan D, Nardi C, Steinkuhler C, De Francesco R. Biochemistry. 38(17):5620-32, (1999)). Briefly, a three-lysine solubilizing tail was added at the 3′-end of the NS4A coding region. The cysteine in the P1 position of the NS4A-NS4B cleavage site (amino acid 1711) was changed to a glycine to avoid the proteolytic cleavage of the lysine tag. Furthermore, a cysteine to serine mutation was introduced by PCR at amino acid position 1454 to prevent the autolytic cleavage in the NS3 helicase domain. The variant DNA fragment was cloned in the pET21b bacterial expression vector (Novagen) and the NS3/4A complex was expressed in Escherichia coli strain BL21 (DE3) (Invitrogen) following the protocol described by P. Gallinari et al. (see Gallinari P, Brennan D, Nardi C, Brunetti M, Tomei L, Steinkuhler C, De Francesco R., J Virol. 72(8):6758-69 (1998)) with modifications. Briefly, NS3/4A expression was induced with 0.5 mM Isopropyl β-D-1-thiogalactopyranoside (IPTG) for 22 hr at 20° C. A typical fermentation (10 L) yielded approximately 80 g of wet cell paste. The cells were resuspended in lysis buffer (10 mL/g) consisting of 25 mM N-(2-Hydroxyethyl)Piperazine-N′-(2-Ethane Sulfonic acid) (HEPES), pH7.5, 20% glycerol, 500 mM Sodium Chloride (NaCl), 0.5% Triton-X100, 1 ug/ml lysozyme, 5 mM Magnesium Chloride (MgCl2), 1 ug/ml DnaseI, 5 mM β-Mercaptoethanol (βME), Protease inhibitor—Ethylenediamine Tetraacetic acid (EDTA) free (Roche), homogenized and incubated for 20 mins at 4° C. The homogenate was sonicated and clarified by ultra-centrifugation at 235000 g for lhr at 4° C. Imidazole was added to the supernatant to a final concentration of 15 mM and the pH adjusted to 8.0. The crude protein extract was loaded on a Nickel—Nitrilotriacetic acid (Ni—NTA) column pre-equilibrated with buffer B (25 mM HEPES, pH8.0, 20% glycerol, 500 mM NaCl, 0.5% Triton-X100, 15 mM imidazole, 5 mM βME). The sample was loaded at a flow rate of 1 mL/min. The column was washed with 15 column volumes of buffer C (same as buffer B except with 0.2% Triton-X100). The protein was eluted with 5 column volumes of buffer D (same as buffer C except with 200 mM Imidazole). […]

T1 sequence (P27958 1027-1657 C1454S): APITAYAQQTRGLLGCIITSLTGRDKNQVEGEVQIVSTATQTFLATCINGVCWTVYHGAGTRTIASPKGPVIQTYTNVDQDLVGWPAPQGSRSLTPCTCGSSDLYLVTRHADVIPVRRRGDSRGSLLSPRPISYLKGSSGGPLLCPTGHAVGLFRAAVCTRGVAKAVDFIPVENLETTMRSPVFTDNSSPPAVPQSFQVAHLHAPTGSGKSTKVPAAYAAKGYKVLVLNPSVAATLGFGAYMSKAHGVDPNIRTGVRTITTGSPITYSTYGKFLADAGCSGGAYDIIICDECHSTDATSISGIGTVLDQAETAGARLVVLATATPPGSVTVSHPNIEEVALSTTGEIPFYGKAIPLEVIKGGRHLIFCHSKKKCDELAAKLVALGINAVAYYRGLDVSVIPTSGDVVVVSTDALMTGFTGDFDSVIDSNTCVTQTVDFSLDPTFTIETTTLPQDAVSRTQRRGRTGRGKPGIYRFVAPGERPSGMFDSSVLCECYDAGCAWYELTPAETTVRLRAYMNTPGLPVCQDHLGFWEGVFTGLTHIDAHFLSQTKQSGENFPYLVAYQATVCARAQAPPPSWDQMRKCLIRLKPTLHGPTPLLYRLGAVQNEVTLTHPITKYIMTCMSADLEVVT
T1 sequence (P27958 1658-1711 partner, looked up, stated change not applied): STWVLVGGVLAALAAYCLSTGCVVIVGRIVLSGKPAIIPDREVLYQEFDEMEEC

Row | Compound | EC50 [1] [µM] | IC50 [2] [µM]
1 | C=CC1C[C@]1(NC(=O)[C@@H]1C[C@@H](Oc2cc(-c3ccccc3)nc3cc(OC)ccc23)CN1C(=O)[C@@H](NC(=O)OC(C)(C)C)C(C)(C)C)C(=O)NS(=O)(=O)C1CCS(=O)(=O)C1 (mixture of isomers) [Compound 13, {1-[2-[1-(1,1-Dioxo-tetrahydro-1H-1[…]6-thiophene-3(R/S)-sulfonylaminocarbonyl)-2-vinylcyclopropylcarbamoyl]-4-(7-methoxy-2-phenyl-quinolin-4-yloxy)pyrrolidine-1-carbonyl]-2,2-dimethylpropyl}carbamic acid tert-butyl ester] | 0.1 to 1 | < 0.1
2 | C=CC1C[C@]1(NC(=O)[C@@H]1C[C@@H](Oc2cc(-c3ccccc3)nc3cc(OC)ccc23)CN1C(=O)[C@@H](NC(=O)OC(C)(C)C)C(C)(C)C)C(=O)NS(=O)(=O)c1ccc(Cl)s1 (stereo in doubt) [Compound 2, (1-{4-(7-Methoxy-2-phenylquinolin-4-yloxy)-2-[1-(5-Chlorothiophene-2-sulfonylaminocarbonyl)-2-vinyl-cyclopropylcarbamoyl]-pyrrolidine-1-carbonyl}-2,2-dimethylpropyl)carbamic acid tert-butyl ester] | 0.1 to 1 | < 0.1
3 | C=CC1C[C@]1(NC(=O)[C@@H]1C[C@@H](Oc2cc(-c3ccccc3)nc3cc(OC)ccc23)CN1C(=O)[C@@H](NC(=O)OC(C)(C)C)C(C)(C)C)C(=O)NS(=O)(=O)c1ccc([N+](=O)[O-])s1 (stereo in doubt) [Compound 3, (1-{4-(7-Methoxy-2-phenylquinolin-4-yloxy)-2-[1-(5-Nitrothiophene-2-sulfonylaminocarbonyl)-2-vinyl-cyclopropylcarbamoyl]pyrrolidine-1-carbonyl}-2,2-dimethylpropyl)carbamic acid tert-butyl ester] | 0.1 to 1 | 0.1 to 1
4 | C=CC1C[C@]1(NC(=O)[C@@H]1C[C@@H](Oc2cc(-c3ccccc3)nc3cc(OC)ccc23)CN1C(=O)[C@@H](NC(=O)OC(C)(C)C)C(C)(C)C)C(=O)NS(=O)(=O)c1ccc(Br)s1 (stereo in doubt) [Compound 4, (1-{4-(7-Methoxy-2-phenylquinolin-4-yloxy)-2-[1-(5-Bromothiophene-2-sulfonylaminocarbonyl)-2-vinyl-cyclopropylcarbamoyl]pyrrolidine-1-carbonyl}-2,2-dimethylpropyl)carbamic acid tert-butyl ester] | 0.1 to 1 | < 0.1
5 | C=CC1C[C@]1(NC(=O)[C@@H]1C[C@@H](Oc2cc(-c3ccccc3)nc3cc(OC)ccc23)CN1C(=O)[C@@H](NC(=O)OC(C)(C)C)C(C)(C)C)C(=O)NS(=O)(=O)c1ccc(Sc2ccc(Cl)cc2)s1 (stereo in doubt) [Compound 5, {1-[2-{1-[5-(4-Chlorophenylsulfanyl)-thiophene-2-sulfonylamino-carbonyl]-2-vinyl-cyclopropylcarbamoyl}-4-(7-methoxy-2-phenyl-quinolin-4-yloxy)-pyrrolidine-1-carbonyl]-2,2-dimethylpropyl}carbamic acid tert-butyl ester] | 1 to 10 | 0.1 to 1
6 | C=CC1C[C@]1(NC(=O)[C@@H]1C[C@@H](Oc2cc(-c3ccccc3)nc3cc(OC)ccc23)CN1C(=O)[C@@H](NC(=O)OC(C)(C)C)C(C)(C)C)C(=O)NS(=O)(=O)c1cc(Br)c(Cl)s1 (stereo in doubt) [Compound 7, {1-[2-{1-[4-Bromo-5-chlorothiophene-2-sulfonylamino-carbonyl]-2-vinylcyclopropylcarbamoyl}-4-(7-methoxy-2-phenyl-quinolin-4-yloxy)pyrrolidine-1-carbonyl]-2,2-dimethylpropyl}carbamic acid tert-butyl ester] | 1 to 10 | < 0.1
